# Data: PMC8921294, “Inhibition of mitochondrial LonP1 protease by allosteric blockade of ATP binding and hydrolysis via CDDO and its derivatives” (The Journal of Biological Chemistry, 2022)
# Target: T1, Human LonP1 protease (Homo sapiens, UniProt P36776)
# T1 construct: hexa-histidine (N); made in house; host or cells: Rosetta 2 E. coli
# T1 sequence (P36776 68-959): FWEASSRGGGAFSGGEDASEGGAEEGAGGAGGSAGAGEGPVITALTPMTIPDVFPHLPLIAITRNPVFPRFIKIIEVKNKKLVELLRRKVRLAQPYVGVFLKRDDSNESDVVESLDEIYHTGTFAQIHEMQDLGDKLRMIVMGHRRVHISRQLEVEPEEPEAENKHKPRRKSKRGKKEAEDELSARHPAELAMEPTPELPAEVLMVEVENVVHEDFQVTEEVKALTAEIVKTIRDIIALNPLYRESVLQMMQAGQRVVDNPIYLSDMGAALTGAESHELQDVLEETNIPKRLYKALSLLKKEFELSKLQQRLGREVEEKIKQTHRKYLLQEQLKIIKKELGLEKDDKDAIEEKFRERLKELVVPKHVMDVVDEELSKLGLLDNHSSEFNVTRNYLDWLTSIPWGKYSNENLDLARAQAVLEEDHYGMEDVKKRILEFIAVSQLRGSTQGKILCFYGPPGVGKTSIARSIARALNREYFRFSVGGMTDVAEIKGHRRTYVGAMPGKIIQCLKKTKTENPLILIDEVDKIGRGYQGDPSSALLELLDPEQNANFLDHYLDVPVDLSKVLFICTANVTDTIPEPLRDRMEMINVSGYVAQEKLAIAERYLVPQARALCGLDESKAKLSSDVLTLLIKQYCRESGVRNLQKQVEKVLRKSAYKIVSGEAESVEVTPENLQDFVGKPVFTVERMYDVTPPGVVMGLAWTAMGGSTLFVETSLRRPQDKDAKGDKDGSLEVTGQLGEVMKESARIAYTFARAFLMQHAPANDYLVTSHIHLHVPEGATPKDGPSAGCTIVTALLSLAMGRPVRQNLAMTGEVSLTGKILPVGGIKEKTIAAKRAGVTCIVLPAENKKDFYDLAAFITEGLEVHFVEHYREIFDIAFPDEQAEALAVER
# Assay: FITC-casein protease assay (ATP-dependent proteolysis)
# Format: biochemical
# Details: for Inhibition of LonP1-mediated degradation of FITC-casein: 30 min preincubation at 30 °C, ATP 4 mM; for Preincubation time after which ATP-dependent proteolysis is inhibited: preincubation at 30 °C
# Experimental: Human LonP1 (1.0 μM monomer) was preincubated with CDDO derivatives, TP-82, enoxolone (5 μM) or DMSO vehicle control (1%) in buffer (150 mM NaCl, 50 mM Hepes-KOH pH 8.0, 10 mM MgCl2, 0.1 mg/ml BSA) for 30 min at 30 °C. Reactions were initiated by the addition of FITC-casein (0.1 mg/ml) and ATP (4.0 mM) and incubated at 37 °C. The kinetics of FITC-casein degradation was measured by the increase in relative fluorescence units (RFU) at 490–525 nm wavelength at 37 °C using a Spectramax or Biotek Synergy plate reader. For endpoint assays, aliquots of reactions incubated at 37 °C were removed at indicated time points and terminated by adding 5X reducing sample buffer (RSB). The decrease of intact FITC-casein was determined by SDS-PAGE followed by visualization using FluorChem or Chemi-Doc systems.
# Reactions (500 μl) containing LonP1 (1.0 μM monomer) in buffer (150 mM NaCl, 50 mM Hepes-KOH pH 8.0, 10 mM MgCl2) were preincubated with CDDO-Me (10 μM) or DMSO (1%) for 60 min at 30 °C. After this period, respective aliquots (50 μl) were removed and assayed for FITC-casein degradation to confirm inhibition by CDDO-Me. The remaining 450 μl reaction was transferred to a Slide-A-Lyzer (100 kDa MWCO) and dialyzed against 500 ml Buffer K (50 mM Hepes KOH, pH 8.0, 150 mM NaCl, 10 mM MgOAc2, 20% glycerol) for 24 h at 4 °C. After this period, the protein concentration was measured to determine protein recovery and the protease activity of LonP1, which had been preincubated with and without CDDO-Me was measured using the FITC-casein degradation assay.
Inhibition of LonP1-mediated degradation of FITC-casein,Preincubation time after which ATP-dependent proteolysis is inhibited,"Reversibility: proteolytic activity after dialysis (10 μM, dialysis at 4 °C for 24 h)","Degradation of FITC-casein before dialysis (10 μM, preincubation 60 min at 30 °C)",Structure (SMILES)
inhibit,≥ 20 min,,,"CC1(C)CC[C@]2(C(=O)O)CC[C@]3(C)[C@H](C(=O)C=C4[C@@]5(C)C=C(C#N)C(=O)C(C)(C)[C@@H]5CC[C@]43C)[C@@H]2C1 [CDDO, 2-cyano-3,12-dioxooleana-1,9(11)-dien-28-oic acid]"
inhibit,5 min,restored proteolytic activity,completely block,COC(=O)[C@]12CCC(C)(C)C[C@H]1[C@H]1C(=O)C=C3[C@@]4(C)C=C(C#N)C(=O)C(C)(C)[C@@H]4CC[C@@]3(C)[C@]1(C)CC2 [CDDO-Me]
